# Experimental data: US6335350B1, “Acetamide and substituted acetamide-containing thiourea inhibitors of herpes viruses” (American Home Products Corporation, priority 1998, dated 2002)
# Key:
# HCMV wild-type = assay: HCMV yield assay; assay type: cell-based, human cytomegalovirus; details: human foreskin fibroblasts; for IC50: Human betaherpesvirus 5, Fibroblast, read-out: IC50 Ug/ml HCMV
# In short: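 HCMV wild-type infected human foreskin fibroblast monolayers at MOI typically 0.2 with varying compound concentrations; virus yield harvested at 3 days post-infection and titered on fibroblasts without inhibitor, plaques counted at 2 weeks. IC50 or IC90 = compound amount reducing yield titer by 50% or 90%.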
# HSV-1 = assay: HSV Antiviral (ELISA) Assay; assay type: cell-based, herpes simplex virus type 1; details: Vero cells, HSV-1; for IC50: Human alphaherpesvirus 1, Vero, read-out: IC50 Ug/ml HSV
# In short: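 Vero cells in DMEM/2% FBS pretreated with compound 30 min before HSV-1 infection (MOI 0.006), then ~24 h at 37 °C. Viral gD detected by ELISA with β-galactosidase secondary and 4-methylumbelliferyl-galactoside (ex 365/em 450 nm); IC50 from fluorescence versus untreated infected cells.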
# VZV strain Ellen = assay: VZV Antiviral (ELISA) Assay; assay type: cell-based, varicella-zoster virus; details: human foreskin fibroblast cells; for IC50 / inhibition at 10 µg/mL: Human alphaherpesvirus 3, Fibroblast; for IC50: read-out: IC50 Ug/ml VZV; for inhibition at 10 µg/mL: read-out: % inhibition 10 ug/ml VZV, 10 ug/ml
# In short: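 Low-MOI (<0.1) Ellen infection of HFF overnight; cell mix plated 3.5×10^4/well with compound, DMEM + 2% FBS, 3 d, 37° C, 5% CO2. Fix, anti-gpII mAb ELISA, MUG substrate, fluorescence. IC50 vs compound-free signal.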
Structure (SMILES),IC50 (HSV-1) [µg/mL],IC50 Ug/ml HSV (HSV-1) [Ug/ml],IC50 (HCMV wild-type) [µg/mL],IC50 (VZV strain Ellen) [µg/mL],inhibition at 10 µg/mL (VZV strain Ellen) [%],IC50 Ug/ml HCMV (HCMV wild-type) [Ug/ml],% inhibition 10 ug/ml VZV (VZV strain Ellen) [%],IC50 Ug/ml VZV (VZV strain Ellen) [Ug/ml]
"COc1cc(OC)c(NC(=S)Nc2cc(OC)c(NC(C)=O)cc2C)cc1Cl [Example 285, N-{4-[3-(5-Chloro-2,4-dimethoxy-phenyl)-thioureido]-2-methoxy-5-methyl-phenyl}-acetamide]",> 50,,> 50,> 10,18,,,
"COc1ccc(NC(=S)Nc2ccc(NC(C)=O)cc2)cc1C(F)(F)F [Example 290, N-{4-[3-(4-Methoxy-3-trifluoromethyl-phenyl)-thioureido]-phenyl}-acetamide]",> 50,,5,> 10,1,,,
"COc1cc(OC)c(NC(=S)Nc2ccc(NC(C)=O)c(C(=O)c3ccccc3)c2)cc1Cl [Example 292, N-{2-Benzoyl-4-[3-(5-chloro-2,4-dimethoxy-phenyl)-thioureido]-phenyl}-acetamide]",> 50,,> 10,13,70,,,
"COc1cc(OC)c(NC(=S)Nc2ccc(NC(C)=O)cc2C)cc1Cl [Example 297, N-{4-[3-(5-Chloro-2,4-dimethoxy-phenyl)-thioureido]-3-methyl-phenyl}-acetamide]",1,,> 10,> 10,23,,,
"COc1cc(OC)c(NC(=S)Nc2ccc(NC(C)=O)c(C(F)(F)F)c2)cc1Cl [Example 305, N-{4-[3-(5-Chloro-2,4-dimethoxy-phenyl)-thioureido]-2-trifluoromethyl-phenyl}-acetamide]",> 10,,> 10,> 10,32,,,
"COc1cc(OC)c(NC(=S)Nc2ccc(NC(C)=O)c(C)c2)cc1Cl [Example 309, N-{4-[3-(5-Chloro-2,4-dimethoxy-phenyl)-thioureido]-2-methyl-phenyl}-acetamide]",8,,25,> 10,22,,,
"COc1cc(OC)c(NC(=S)Nc2ccc(NC(C)=O)nc2)cc1Cl [Example 314, N-{5-[3-(5-Chloro-2,4-dimethoxy-phenyl)-thioureido]-pyridin-2-yl}-acetamide]",2,,30,> 10,34,,,
"CC(=O)Nc1ccc(NC(=S)Nc2ccc(NC3CCN(Cc4ccccc4)CC3)c(Cl)c2)cc1 [Example 315, N-(4-{3-[4-(1-Benzyl-piperidin-4-ylamino)-3-chloro-phenyl]-thioureido}-phenyl)-acetamide]",8,,1.5,> 10,40,,,
"CC(=O)Nc1ccc(NC(=S)Nc2ccc(NC3CCN(Cc4ccccc4)C3)c(Cl)c2)cc1 (centres unmarked) [Example 319, N-(4-{3-[4-(1-Benzyl-pyrrolidin-3-ylamino)-3-chloro-phenyl]-thioureido}-phenyl)-acetamide]",6,,5,7,82,,,
"COc1cc(OC)c(NC(=S)Nc2cc(O)c(NC(C)=O)cc2Cl)cc1Cl [Example 321, N-{5-Chloro-4-[3-(5-chloro-2,4-dimethoxy-phenyl)-thioureido]-2-hydroxy-phenyl}-acetamide]",7,,18,> 10,28,,,
"COc1cc(OC)c(NC(=S)Nc2cc(C)c(NC(C)=O)cc2Cl)cc1Cl [Example 326, N-{5-Chloro-4-[3-(5-chloro-2,4-dimethoxy-phenyl)-thioureido]-2-methyl-phenyl}-acetamide]",10,,> 10,> 10,19,,,
"COc1cc(OC)c(NC(=S)Nc2ccc(NC(C)=O)c3ccccc23)cc1Cl [Example 329, N-{4-[3-(5-Chloro-2,4-dimethoxy-phenyl)-thioureido]-naphthalen-1-yl}-acetamide]",4,,> 10,> 10,38,,,
"CC(=O)Nc1ccc(NC(=S)Nc2ccc(OC3CCN(C)C3)c(Cl)c2)cc1 (centres unmarked) [Example 334, N-(4-{3-[3-Chloro-4-(1-methyl-pyrrolidin-3-yloxy)-phenyl]-thioureido}-phenyl)-acetamide]",35,,18,> 10,7,,,
"CC(=O)Nc1ccc(NC(=S)Nc2ccc(OC3CCN(C)CC3)c(Cl)c2)cc1 [Example 335, N-(4-{3-[3-Chloro-4-(1-methyl-piperidin-4-yloxy)-phenyl]-thioureido}-phenyl)-acetamide]",30,,30,> 10,8,,,

# Continued, in another order:
IC50 (HSV-1) [µg/mL],IC50 Ug/ml HSV (HSV-1) [Ug/ml],Structure (SMILES),IC50 (HCMV wild-type) [µg/mL],IC50 (VZV strain Ellen) [µg/mL],inhibition at 10 µg/mL (VZV strain Ellen) [%],IC50 Ug/ml HCMV (HCMV wild-type) [Ug/ml],% inhibition 10 ug/ml VZV (VZV strain Ellen) [%],IC50 Ug/ml VZV (VZV strain Ellen) [Ug/ml]
,>50,CC(=O)Nc1ccc(NC(=S)Nc2ccc(N(C)CCO)c(Cl)c2)cc1 [Example 291],,,,6,18,>10
> 50,,"CC(=O)Nc1ccc(NC(=S)Nc2ccc(N(C)CCCN(C)C)c(Cl)c2)cc1 [Example 298, N-[4-(3-{3-Chloro-4-[(3-dimethylamino-propyl)-methyl-amino]-phenyl}-thioureido)-phenyl]-acetamide]",15,> 10,1,,,
> 10,,"CC(=O)Nc1ccc(NC(=S)Nc2ccc(NC3CCCCC3)c(Cl)c2)cc1 [Example 299, N-{4-[3-(3-Chloro-4-cyclohexylamino-phenyl)-thioureido]-phenyl}-acetamide]",6,3.8,72,,,
,>50,CC(=O)Nc1ccc(NC(=S)Nc2ccc(N(C)CCN(C)C)c(Cl)c2)cc1 [Example 300],,,,1.5,23,>10
50,,"CC(=O)Nc1ccc(NC(=S)Nc2ccc(NC(C)=O)c(Cl)c2)cc1 [Example 312, N-{4-[3-(4-Acetylamino-phenyl)-thioureido]-2-chloro-phenyl}-acetamide]",50,> 10,22,,,
> 10,,"CCOC(=O)Nc1ccc(NC(=S)Nc2ccc(NC(C)=O)cc2)cc1Cl [Example 313, {4-[3-(4-Acetylamino-phenyl)-thioureido]-2-chloro-phenyl}-carbamic acid ethyl ester]",> 10,> 10,36,,,
30,,"CC(=O)Nc1ccc(NC(=S)Nc2ccc(NCCN(C)C)c(Cl)c2)cc1 [Example 316, N-(4-{3-[3-Chloro-4-(2-dimethylamino-ethylamino)-phenyl]-thioureido}-phenyl)-acetamide]",> 50,> 10,56,,,
35,,"COCCN(C)c1ccc(NC(=S)Nc2ccc(NC(C)=O)cc2)cc1Cl [Example 317, N-[4-(3-{3-Chloro-4-[(2-methoxy-ethyl)-methyl-amino]-phenyl}-thioureido)-phenyl]-acetamide]",2,> 10,30,,,
> 50,,"CC(=O)Nc1ccc(NC(=S)Nc2ccc(NCCCN(C)C)c(Cl)c2)cc1 [Example 318, N-(4-{3-[3-Chloro-4-(3-dimethylamino-propylamino)-phenyl]-thioureido}-phenyl)-acetamide]",> 50,> 10,26,,,
